{"source": "ChEMBL document CHEMBL5236635", "about": "“Structure-Based Drug Design and Synthesis of Novel N-Aryl-2,4-bithiazole-2-amine CYP1B1-Selective Inhibitors in Overcoming Taxol Resistance in A549 Cells” (J Med Chem, 2022)", "key": {"NCI-H460 [1]": {"test_system": "NCI-H460", "assay": "Inhibition of DMBA-induced CYP1B1 overexpression in human NCI-H460 cells assessed as increase in SRC level incubated for 24 hrs by densitometry analysis", "format": "functional, cell-based", "conditions": "dose 5.0 µM"}, "A549 [2]": {"test_system": "A549", "assay": "Upregulation of DMBA-induced CYP1B1 expression level in human A549 cells incubated for 24 hrs", "format": "functional, cell-based", "conditions": "dose 1-10 µM"}, "A549 [3]": {"test_system": "A549", "assay": "Inhibition of DMBA-induced CYP1B1 overexpression in human A549 cells assessed as effect on Snail level at 5 uM incubated for 24 hrs by densitometry analysis", "format": "functional, cell-based"}, "NCI-H460 [4]": {"test_system": "NCI-H460", "assay": "Inhibition of DMBA-induced CYP1B1 expression level in human NCI-H460 cells at 5 uM incubated for 24 hrs", "format": "functional, cell-based"}, "A549 [5]": {"test_system": "A549", "assay": "Inhibition of DMBA-induced CYP1B1 overexpression in human A549 cells assessed as decrease in Vimentin level at 5 uM incubated for 24 hrs by densitometry analysis", "format": "functional, cell-based"}, "[6]": {"target": "Focal adhesion kinase 1 (Homo sapiens) (UniProt Q05397)", "sequence (Q05397 2-1052 limits assumed)": "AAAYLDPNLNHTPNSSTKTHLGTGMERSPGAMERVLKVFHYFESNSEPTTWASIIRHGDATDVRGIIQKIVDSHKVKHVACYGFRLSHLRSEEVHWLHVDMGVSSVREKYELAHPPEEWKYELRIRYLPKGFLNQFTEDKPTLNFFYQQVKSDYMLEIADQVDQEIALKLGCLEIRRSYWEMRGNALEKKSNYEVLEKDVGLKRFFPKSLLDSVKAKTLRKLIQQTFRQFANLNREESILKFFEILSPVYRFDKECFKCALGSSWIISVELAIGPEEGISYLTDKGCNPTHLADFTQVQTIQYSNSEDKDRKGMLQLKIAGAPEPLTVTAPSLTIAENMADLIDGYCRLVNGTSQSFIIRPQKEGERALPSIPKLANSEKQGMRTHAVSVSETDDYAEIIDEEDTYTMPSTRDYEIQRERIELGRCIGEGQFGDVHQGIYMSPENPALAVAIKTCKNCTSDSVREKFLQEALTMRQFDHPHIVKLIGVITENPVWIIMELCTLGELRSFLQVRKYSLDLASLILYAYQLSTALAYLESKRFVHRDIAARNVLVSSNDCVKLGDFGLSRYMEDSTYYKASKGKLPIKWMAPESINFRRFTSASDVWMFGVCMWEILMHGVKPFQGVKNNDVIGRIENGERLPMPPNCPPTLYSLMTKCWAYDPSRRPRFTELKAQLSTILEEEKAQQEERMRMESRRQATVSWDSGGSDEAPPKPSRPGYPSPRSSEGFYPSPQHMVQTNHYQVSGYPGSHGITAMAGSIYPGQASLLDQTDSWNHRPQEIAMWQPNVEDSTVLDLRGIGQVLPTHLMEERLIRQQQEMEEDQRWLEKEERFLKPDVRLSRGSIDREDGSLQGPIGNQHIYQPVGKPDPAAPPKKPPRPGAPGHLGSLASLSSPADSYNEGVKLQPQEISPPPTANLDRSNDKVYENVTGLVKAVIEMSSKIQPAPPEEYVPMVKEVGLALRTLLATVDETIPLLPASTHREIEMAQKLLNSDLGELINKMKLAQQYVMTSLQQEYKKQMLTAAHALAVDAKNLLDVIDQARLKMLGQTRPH", "assay": "Inhibition of FAK pathway in human A549/Taxol cells assessed as decrease in phosphorylated FAK level at 5 uM incubated for 24 hrs", "format": "cell-based"}, "NCI-H460 [7]": {"test_system": "NCI-H460", "assay": "Antiproliferative activity against human taxol resistance human NCI-H460 cells assessed as reduction in cell viability incubated for 24 hrs by MTT assay", "format": "functional, cell-based", "conditions": "dose 5.0 µM"}, "NCI-H460 [8]": {"test_system": "NCI-H460", "assay": "Inhibition of DMBA-induced AKT overexpression in human taxol resistance NCI-H460 cells at 5 uM incubated for 24 hrs", "format": "functional, cell-based"}, "NCI-H460 [9]": {"test_system": "NCI-H460", "assay": "Upregulation of DMBA-induced CYP1B1 expression level in human NCI-H460 cells at 5 uM incubated for 24 hrs", "format": "functional, cell-based"}, "A549/TR [10]": {"test_system": "A549/TR", "assay": "Reversal of taxol resistance in human A549/Taxol cells assessed as suppression of P-gp expression level at 5 uM incubated for 20 mins by multimode plate reader analysis", "format": "functional, cell-based"}, "NCI-H460 [11]": {"test_system": "NCI-H460", "assay": "Inhibition of DMBA-induced AKT overexpression in human taxol resistance NCI-H460 cells incubated for 24 hrs", "format": "functional, cell-based", "conditions": "dose 5.0 µM"}, "NCI-H460 [12]": {"test_system": "NCI-H460", "assay": "Inhibition of DMBA-induced CYP1B1 overexpression in human NCI-H460 cells assessed as increase in Vimentin level incubated for 24 hrs by densitometry analysis", "format": "functional, cell-based", "conditions": "dose 5.0 µM"}, "NCI-H460 [13]": {"test_system": "NCI-H460", "assay": "Inhibition of DMBA-induced CYP1B1 overexpression in human NCI-H460 cells assessed as decrease in E-cadherin level incubated for 24 hrs by densitometry analysis", "format": "functional, cell-based", "conditions": "dose 5.0 µM"}, "A549 [14]": {"test_system": "A549", "assay": "Inhibition of cell migration in DMBA-induced human A549 cells at 5 uM incubated for 48 hrs by inverted microscopic analysis", "format": "functional, cell-based"}, "A549 [15]": {"test_system": "A549", "assay": "Antiproliferative activity against human taxol resistance human A549 cells assessed as reduction in cell viability incubated for 24 hrs by MTT assay", "format": "functional, cell-based", "conditions": "dose 5.0 µM"}, "A549/TR [16]": {"test_system": "A549/TR", "assay": "Downregulation of Vimentin expression level in human A549/Taxol cells at 2.5 to 10 uM incubated for 24 hrs by densitometry analysis", "format": "functional, cell-based", "conditions": "dose 2.5-10 µM"}, "A549/TR [17]": {"test_system": "A549/TR", "assay": "Synergistic antiproliferative activity against human A549/Taxol cells assessed as increase in taxol by measuring combination index at 3.75 uM incubated for 72 hrs in presence of 0.13 uM taxol by MTT assay", "format": "functional"}, "A549/TR [18]": {"test_system": "A549/TR", "assay": "Synergistic antiproliferative activity against human A549/Taxol cells assessed as increase in taxol by measuring combination index at 30 uM incubated for 72 hrs in presence of 0.50 uM taxol by MTT assay", "format": "functional"}, "A549/TR [19]": {"test_system": "A549/TR", "assay": "Synergistic antiproliferative activity against human A549/Taxol cells assessed as increase in taxol by measuring combination index at 7.50 uM incubated for 72 hrs in presence of 0.13 uM taxol by MTT assay", "format": "functional", "conditions": "dose 7.5 µM"}, "A549 [20]": {"test_system": "A549", "assay": "Inhibition of DMBA induced taxol resistance in human A549 cells", "format": "functional, cell-based", "conditions": "dose 2.5-10 µM"}, "A549/TR [21]": {"test_system": "A549/TR", "assay": "Synergistic antiproliferative activity against human A549/Taxol cells assessed as increase in taxol by measuring combination index at 7.50 uM incubated for 72 hrs in presence of 0.50 uM taxol by MTT assay", "format": "functional", "conditions": "dose 7.5 µM"}, "A549/TR [22]": {"test_system": "A549/TR", "assay": "Synergistic antiproliferative activity against human A549/Taxol cells assessed as inhibition of cell growth at 3.75 to 30 uM incubated for 72 hrs in presence of taxol by MTT assay", "format": "functional", "parameters": "scale not given: the % may be the effect or the level left", "conditions": "dose 3.75-30 µM"}, "A549/TR [23]": {"test_system": "A549/TR", "assay": "Synergistic antiproliferative activity against human A549/Taxol cells assessed as increase in taxol by measuring combination index at 15 uM incubated for 72 hrs in presence of 0.06 uM taxol by MTT assay", "format": "functional"}, "A549/TR [24]": {"test_system": "A549/TR", "assay": "Synergistic antiproliferative activity against human A549/Taxol cells assessed as increase in taxol by measuring combination index at 3.75 uM incubated for 72 hrs in presence of 1 uM taxol by MTT assay", "format": "functional"}, "A549/TR [25]": {"test_system": "A549/TR", "assay": "Inhibition of cell invasion in human A549/Taxol cells at 2.5 to 10 uM incubated for 18 hrs by optical microscopic analysis", "format": "functional, cell-based", "conditions": "dose 2.5-10 µM"}, "Cytochrome P450 1A1": {"target": "T1, Cytochrome P450 1A1 (Homo sapiens, UniProt P04798)", "T1 sequence (P04798 whole entry)": "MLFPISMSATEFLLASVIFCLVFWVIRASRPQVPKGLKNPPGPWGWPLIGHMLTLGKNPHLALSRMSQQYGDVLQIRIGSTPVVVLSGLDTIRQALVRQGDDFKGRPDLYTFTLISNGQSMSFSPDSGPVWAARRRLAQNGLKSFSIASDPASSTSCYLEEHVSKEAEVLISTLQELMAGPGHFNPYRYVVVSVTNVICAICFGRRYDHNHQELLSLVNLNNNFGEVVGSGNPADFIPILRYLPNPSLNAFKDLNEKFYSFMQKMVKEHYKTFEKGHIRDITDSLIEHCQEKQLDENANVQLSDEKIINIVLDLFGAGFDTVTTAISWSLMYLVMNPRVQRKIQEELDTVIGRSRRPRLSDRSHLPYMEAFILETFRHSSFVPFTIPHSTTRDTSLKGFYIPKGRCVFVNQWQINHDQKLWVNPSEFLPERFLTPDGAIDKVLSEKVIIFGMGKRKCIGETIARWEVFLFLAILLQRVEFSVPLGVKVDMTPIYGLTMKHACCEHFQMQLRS", "assay": "Inhibition of recombinant human CYP1A1 using 7-ethyl-0-resorufin as substrate incubated for 30 mins in presence of NADPH by EROD assay"}}, "note": "pIC50: −log10 of the molar value. Activity calls are given as the source filed them. The calls are words filed in the database; no cut-off is given here."}
{"smiles": "COc1cc(/C=C/c2ccc(OC)cc2OC)cc(OC)c1", "values": [{"measurement": "inhibition", "setting": "NCI-H460 [1]", "result": "Dose-Dependent Effect"}, {"measurement": "Activity", "setting": "A549 [2]", "result": "Dose-Dependent Effect"}, {"measurement": "inhibition", "setting": "A549 [3]", "result": "inactive"}, {"measurement": "inhibition", "setting": "NCI-H460 [4]", "result": "Active"}, {"measurement": "inhibition", "setting": "A549 [5]", "result": "inactive"}, {"measurement": "inhibition", "setting": "[6]", "result": "Active"}, {"measurement": "Activity", "setting": "NCI-H460 [7]", "result": "Dose-Dependent Effect"}, {"measurement": "inhibition", "setting": "NCI-H460 [8]", "result": "Active"}, {"measurement": "Activity", "setting": "NCI-H460 [9]", "result": "inactive"}, {"measurement": "Activity", "setting": "A549/TR [10]", "result": "Active"}, {"measurement": "inhibition", "setting": "NCI-H460 [11]", "result": "Dose-Dependent Effect"}, {"measurement": "inhibition", "setting": "NCI-H460 [12]", "result": "Dose-Dependent Effect"}, {"measurement": "inhibition", "setting": "NCI-H460 [13]", "result": "Dose-Dependent Effect"}, {"measurement": "inhibition", "setting": "A549 [14]", "result": "Active"}, {"measurement": "Activity", "setting": "A549 [15]", "result": "Dose-Dependent Effect"}]}
{"smiles": "COc1cc(Nc2nc(-c3nc(-c4ccccc4F)cs3)cs2)cc(OC)c1", "values": [{"measurement": "Activity", "setting": "A549/TR [16]", "result": "inactive"}, {"measurement": "CI", "setting": "A549/TR [17]", "result": 0.55}, {"measurement": "CI", "setting": "A549/TR [18]", "result": 0.2}, {"measurement": "CI", "setting": "A549/TR [19]", "result": 0.31}, {"measurement": "inhibition", "setting": "A549 [20]", "result": "Dose-Dependent Effect"}, {"measurement": "CI", "setting": "A549/TR [21]", "result": 0.66}, {"measurement": "Activity", "setting": "A549/TR [22]", "result": 62, "unit": "%"}, {"measurement": "CI", "setting": "A549/TR [23]", "result": 0.2}, {"measurement": "CI", "setting": "A549/TR [24]", "result": 1.89}, {"measurement": "inhibition", "setting": "A549/TR [25]", "result": "Dose-Dependent Effect"}, {"measurement": "pIC50", "setting": "Cytochrome P450 1A1", "result": 6.46}]}
